Marks after values point to notes of the source that are not given here.
Columns and labels:
[1] = system: tadpole brain, optic tectum; assay: Elvax implants with NO donor or NOS inhibitor in brain ventricle of stage 45 tadpoles, optic tectum analysis; format: in vivo; conditions: for BrdU-positive cells (total), change / BrdU-positive cells per 10^3 cells, change / TUNEL-positive cells (total), change / TUNEL-positive cells per 10^3 cells, change / brain volume, change / cell density, change / cell number, change: vs saline control
Experimental: To test the effect of exogenously supplying NO to the developing tadpole brain, pieces of the slow-release matrix Elvax impregnated either with S-nitroso-N-acetylpenicillamin (SNAP, a widely used donor or NO which releases NO upon hydrolysis), or with saline as a control were inserted into the brain ventricle of state 45 tadpoles. At 1 or 3 days after implantation the following parameters in the optic tectum were analyzed: the total number of cells (as measured by the number of DAPI-stained nuclei), the number of S phase proliferating cells (as measured by BrdU incorporation), the number of apoptotic cells (as measured by TUNEL assay), the relative numbers of BrdU- and TUNEL-positive cells per 10^3 total cells, the size of the optic tectum, and the cell density in the tectum (Table 5). […] At 3 days the effects of NO on cell proliferation are less pronounced, likely reflecting the complete hydrolysis of the NO donor and the cessation of NO release. […] An increase in programmed cell death in response to NO likely contributes to the decrease in the total number of cells in the brain.
The close proximity of proliferating cells and NOS-expressing cells in the optic tectum and data from the NO donor experiments above are consistent with the proposed antiproliferative role of NO during Xenopus brain development. To test the causative role of NO in cell cycle arrest of neuronal precursors and to determine whether production of NO is necessary for cell cycle arrest and subsequent differentiation of neuronal precursors in the developing Xenopus brain, NOS activity in the brain was inhibited by using Elavax matrix impregnated with a NOS inhibitor, either L-NAME or ETU, or with saline as a control. Pieces of impregnated matrix were inserted into the brain ventricle of stage 45 tadpoles. After 3 days of treatment the brains were examined for changes in the patterns of cell division and differentiation, cell number, and overall size and morphology.
Animals, NOS inhibitors, and NO donors. Albino Xenopus laevis tadpoles were obtained by human chorionic gonadotrophin induced matings and raised under standard conditions. At state 45^5, animals were anesthetized in 0.02% 3-aminobenzoic acid (MS-222; Sigma) and a tiny piece (100 μm^2×30 μm) of slow release Elvax plastic polymer (Dupont) was inserted into the tectal ventricle through an incision made in the overlying skin with a 30 gauge needle. Elvax was prepared with stock concentrations of the NOS inhibitors, 2-ethyl-2thiopseudourea (ETU, Sigma) or L-nitro-arginine methyl ester (L-NAME, Sigma) or the NO donor S-nitroso-acetylpenicillamnin (SNAP, Sigma) prepared as a 1:10 ratio of chemical to polymer matrix. Low molecular weight molecules, including L-NAME, are released at a constant rate over a period up to 30 days as the lyophilized Elvax matrix slowly hydrates. […] Control animals were treated with Elvax impregnated with saline (0.1 M phosphate buffer).
Histochemistry and antibodies. Immunocytochemistry with wholemount preparations and sections of the tadpole was performed as described. Monoclonal antibodies to β-II tubulin, N-CAM (developed by U. Rutishauser), and Islet-1 (developed by T. M. Jessell) were obtained from the Developmental Studies Hybridoma Bank developed under the auspices of the NICHD and maintained by the University of Iowa, Department of Biological Sciences, Iowa City, Iowa 52243. Anti-mouse antibody conjugated to fluorescein (Bochringer Manheim) was used as a secondary antibody. Specimens were visualized and photographed under fluorescence or Normarski optics on a Zeiss Axiophot. For nuclei visualization, brain sections were stained with DAPI, a fluorescent DNA stain (Molecular Probes) at 1 μM. To identify cells in S phase tadpoles were injected with 50 μg/ml 5-Bromo-deoxyuridine (BrdU) (Beckton-dickinson). After two hours survival, animals were fixed in 3.7% paraformaldehyde for 2 hours and then in 70% ethanol overnight. […]

BM cells [2] = assay: TUNEL apoptosis in BM cells after prolonged treatment with NOS inhibitors; format: in vivo; conditions: control 8+/−3%
Excerpt: To test whether prolonged treatment with NOS inhibitors affects the rate of programmed cell death in BM cells, the number of aproptotic cells in the preparation of BM cells was examined.

[3] = system: tadpole brain, optic tectum; assay: Elvax implants with NO donor or NOS inhibitor in brain ventricle of stage 45 tadpoles, optic tectum analysis; format: in vivo; conditions: 7d
developing Xenopus brain = assay: Plastic impregnated with NOS inhibitors in brain ventricle of stage 43 tadpoles (BrdU, TUNEL); format: in vivo, Xenopus laevis; conditions: stage 43 tadpoles, 3, 7 and 12 days, vs control brains
Experimental: After 3, 7 and 12 days, animals were examined for changes in the patterns of cell division, differentiation, survival, and morphology of the brain. […] Whether the inhibition of NOS and excessive proliferation of cells in the developing brain affects the programmed death of neurons in the tectum was tested. […] The increase in the number of TUNEL-positive cells is not due to toxicity of the inhibitors, since cells continued to incorporate BrdU very effectively. […] Alternatively, this may indicate that differentiated neurons became dependent on NO for survival, similar to the situation in fully differentiated PC12 cells (Peunova et al., 1996). Neuronal differentiation in the brain is affected

BM cells [4] = assay: Hematopoietic markers in BM cells of irradiated mice after injection of NOS inhibitors; format: in vivo; conditions: 7-10 days after transplantation; for c-kit positive BM cells: control 2%; for IL-3-R positive BM cells: control 7%; for GM-CSF-R positive BM cells: control 18%; for G-CSF-R positive BM cells: control 24%
Experimental: To study the maturation of hematopoietic cells in the bone marrow of the irradiated recipient mice, the animals were treated as described above and the BM cells from the demurs of syngeneic donors were injected intravenously (10^5 BM cells per mice) in the recipients.
The BM cells were tested for the presence of various growth factor receptors which serve as markers of the differentiation stage and indicate the presence of stem cells and multipotent percursor cells. The BM preparations were tested for cells expressing receptors to HSF (ligand of c-kit), GM-CSF, G-CSF and IL-3.

[5] = system: transplanted BM cells, spleen colonies; assay: Hemopoietic colonies in spleens of irradiated mice after BM transplantation and injection of NOS inhibitors (erythroid differentiation); format: in vivo; conditions: 9-10 days after transplantation
Experimental: To study the formation of cell of the erythroid lineage in the spleen of the irradiated recipient mice, the animals (females of F1 CBA×C57B1 hybrids weighing 22-24 g) were treated with 750 cGy total body irradiation within 3-4 hours before transplantation. This dosage was tested to be enough for complete suppression of hematopoiesis in the irradiated recipient animals. BM cells were flushed from the femurs of syngeneic donors and injected intravenously (10^5 BM cells per mice) in the recipients. The animals received twice a day injections of 100 mg/kg of L-NAME and D-NAME and 10 mg/kg of ETU for 7-10 days. Mice were analyzed 9-10 days after transplantation.
In contrast, when animals were treated with NOS inhibitors after BM transplantation, most of the colonies in the spleen contained undifferentiated blast cells (up to 85% of blast cells colonies and mixed blast erythroid cells colonies). Erythroid colonies comprised only 15% of the total number of colonies, and the megakaryocyte and granulocyte colonies were not detectable. The results were similar with two structurally unrelated NOS inhibitors, confirming the specificity of their action. Thus, prolonged treatment of recipient mice after BM transfer with NOS inhibitor, reversed the ratio of blast cells-containing colonies to the erythroid cells-containing colonies almost 16 fold, effectively preventing erythroid differentiation.

[6] = system: Drosophila melanogaster larvae; assay: Adult fly phenotype (leg segment hypertrophy) after injection of NOS inhibitors into third instar larvae; format: in vivo; conditions: adults after injection of late third instar larvae
Experimental: Chemicals were dissolved in Schneider's solution at concentrations of 0.1 M for L-NAME and D-NAME and 0.01M for ETU and mixed with Freund's adjuvant (Sigma) in 1:3 ratio. Amounts of 5-10 nl were microinjectd in staged late third instar using a glass needle.
To test this hypothesis, NOS activity was inhibited by injecting specific NOS inhibitors in the developing larvae at the end of the third instar, several hours before metamorphosis. Most of the larvae completed metamorphosis successfully, giving rise to adult flies within the normal time frame. The resulting adults differed from normal flies in many respects, the most dramatic being enlargements of the appendages and other structures of the fly body. The changes included a) hypertrophy of the demur, tibia and the segments of the tarsus; b) overgrowth of the tissues originating from the genital discs; in extreme cases, these cells contributed to more than one-quarter of the fly body; c) and increase of the overall surface of the wings; d) overgrowth of the cells of tergites and sternites; e) hypertrophy of the humerus; f) occasional duplications of some areas of the eye; g) occasional realformation of genital structures, legs and eyes; and h) occasional ectopic formation of misplaced body structures.
The changes were most profound in, and most often affected the legs of, the adults. […]

[7] = system: transplanted BM cells, membrane colonies; assay: Hemopoietic colonies on cellulose acetate membranes in the peritoneal cavity of irradiated mice (myeloid differentiation); format: in vivo; conditions: 7-8 days
Experimental: To study the formation of cells of the myeloid lineage, cellulose acetate membranes were implanted in the peritoneal cavity of mice. After 7 days, when a layer of fibroblasts had covered the membranes, the mice were irradiated as described above. BM cells from syngeneic donors were injected (10^5 BM cells per mice) in the peritoneal cavity of the recipients. Animals received injections of NOS inhibitors as described above. Membranes with growing colonies were isolated and analyzed 7-8 days later.
The differentiation status of the colonies in the spleen was evaluated by morphological criteria, myeloperoxidase reaction, and by immunohistochemical tests for the presence of receptors to various cytokines, which are present only at specific stages of the myeloid cells' maturation. […] A much smaller fraction contained undifferentiated blasts cells (6%), and a very small fraction of colonies contained erythroid cells (1.3%). In contrast, when animals were treated with NOS inhibitors after BM transplantation, most of the colonies on the membranes (up to 85%) contained and undifferentiated blasts cells. Colonies with differentiated cells of the granulocyte lineage comprised only 15.6% of the total number of colonies, and a negligible fraction of the colonies (<0.5%) contained erythroid cells. The results were similar with two structurally unrelated NOS inhibitors, confirming the specificity of their action. Thus, prolonged treatment of recipient mice after BM transfer with NOS inhibitor, reversed the ratio of blast cells-contiaing colonies to the granulocytic colinies almost 80-fold, effectively preventing myeloid differentiation.

In the case of `CC(=O)N[C@H](C(=O)O)C(C)(C)SN=O` (racemic) [SNAP, S-nitroso-N-acetylpenicillamine], the “BrdU-positive cells (total)” value ([1]; 1d) is reported as 12 +/− 2, the “BrdU-positive cells per 10^3 cells” value ([1]; 1d) is reported as 3 and the “TUNEL-positive cells (total)” value ([1]; 1d) is reported as 138 +/− 12. The “TUNEL-positive cells per 10^3 cells” value ([1]; 1d) was 34, the brain volume ([1]; 1d) was 66.2 +/− 6.4 mm^3 × 10^−4 and the cell density ([1]; 1d) was 62.6 +/− 14.1 cells per mm^3 × 10^−4. For the same molecule, the cell number ([1]; 1d) was 3983 +/− 606, the “BrdU-positive cells (total), change” value ([1]; 1d) was −96.2% and the “BrdU-positive cells per 10^3 cells, change” value ([1]; 1d) was −95.2%. The “TUNEL-positive cells (total), change” value ([1]; 1d) was −28.2%, the “TUNEL-positive cells per 10^3 cells, change” value ([1]; 1d) was −10.5% and the “brain volume, change” value ([1]; 1d) was −15.6%. The “cell density, change” value ([1]; 1d) was −2.8%, the “cell number, change” value ([1]; 1d) was −20.7% and the “BrdU-positive cells (total)” value ([1]; 3d) was 316 +/− 22. For the same molecule, the “BrdU-positive cells per 10^3 cells” value ([1]; 3d) was 63, the “TUNEL-positive cells (total)” value ([1]; 3d) was 82 +/− 10 and the “TUNEL-positive cells per 10^3 cells” value ([1]; 3d) was 16. For the same molecule, the brain volume ([1]; 3d) was 80.1 +/− 8.6* mm^3 × 10^−4, the cell density ([1]; 3d) was 62.3 +/− 1.7** cells per mm^3 × 10^−4 and the cell number ([1]; 3d) was 5012 +/− 594**. For the same molecule, the “BrdU-positive cells (total), change” value ([1]; 3d) was −34.0%, the “BrdU-positive cells per 10^3 cells, change” value ([1]; 3d) was “+21.1%” and the “TUNEL-positive cells (total), change” value ([1]; 3d) was −51%. For the same molecule, the “TUNEL-positive cells per 10^3 cells, change” value ([1]; 3d) was −11.1%, the “brain volume, change” value ([1]; 3d) was −31.3% and the “cell density, change” value ([1]; 3d) was −20.8%. The “cell number, change” value ([1]; 3d) was −45.1%, the “stock concentration found to be effective” value ([1]; Elvax stock, range of concentrations tested) was 300 mM and the “number of proliferating cells, of the control value” ([1]; day 1) was 5%.

With `CCSC(=N)N` [ETU, 2-ethyl-2-thiopseudourea] the “proportion of apoptotic cells (TUNEL) in BM” value (BM cells [2]) was 8%, the cell density [3] was 105 +/− 3* cells per mm^3 × 10^−4 and the “BrdU-positive cells (total), change” value ([3]; vs saline control) was “+269%”. The “cell density, change” value ([3]; vs saline control) was “+25.5%”, the “BrdU-positive cells (total)” value ([1]; 7d) was 550 +/− 50 and the “BrdU-positive cells per 10^3 cells” value ([1]; 7d) was 42. The “TUNEL-positive cells (total)” value ([1]; 7d) was 184 +/− 7, the “TUNEL-positive cells per 10^3 cells” value ([1]; 7d) was 14 and the brain volume ([1]; 7d) was 122.3 +/− 4.3* mm^3 × 10^−4. For the same molecule, the cell number ([1]; 7d) was 12870 +/− 690*, the “BrdU-positive cells per 10^3 cells, change” value ([1]; 7d) was “+247%” and the “TUNEL-positive cells (total), change” value ([1]; 7d) was “+128%”. For the same molecule, the “TUNEL-positive cells per 10^3 cells, change” value ([1]; 7d) was “+40.0%”, the “cell number, change” value ([1]; 7d) was “+53.7%” and the “toxicity to the animals” value ([1]; Elvax stock 1 M L-NAME, 10 mM ETU, increased BrdU incorporation) was “without any signs of toxicity”. For the same molecule, the “number of cells in the S phase (BrdU labeling) in the brain” value (developing Xenopus brain) was “dramatic increase”, the “c-kit positive BM cells” value (BM cells [4]) was 84% and the “IL-3-R positive BM cells” value (BM cells [4]) was 83%. For the same molecule, the “GM-CSF-R positive BM cells” value (BM cells [4]) was 10% and the “G-CSF-R positive BM cells” value (BM cells [4]) was 8%.

In the case of `COC(=O)[C@H](N)CCCN=C(N)N[N+](=O)[O-]` [D-NAME, D-nitroarginine methyl ester], the “blast cell and erythroid cells colonies” value [5] is reported as 13%, the erythroid colonies [5] is reported as greater than 60% and the granulocyte colonies [5] is reported as 4%. For the same molecule, the megakaryocyte colonies [5] was 7.5%, the blast cell colonies ([5]; injections twice a day) was 14% and the “increase of diameter of certain leg segments (hypertrophy, third pair of legs)” value [6] was “not”. The blast cell colonies [7] was 6%, the erythroid colonies [7] was 1.3% and the granulocytic colonies [7] was 92%. The “c-kit positive BM cells” value (BM cells [4]) was 7%, the “IL-3-R positive BM cells” value (BM cells [4]) was 12% and the “GM-CSF-R positive BM cells” value (BM cells [4]) was 16%. The “G-CSF-R positive BM cells” value (BM cells [4]) was 19%.
